pEC50: −log10 of the molar value. Read-outs that look alike come from different tables or passages of the source. One block for each compound: values may come before it.
How the values were obtained:
Format in all cases: biochemical
[1] = target: T1, JAK1 (aa 850-1154, catalytic domain, GST-tag) (Homo sapiens, UniProt P23458); experiment: JAK kinase assay (HTRF, phosphorylation of TK substrate-biotin), JAK1; conditions: ATP at Km (7 μM)
T1 construct: JAK1 (aa 850-1154) and TYK2 (aa 871-1187) are expressed with an N-terminally fused GST-tag; GST (N); purchased Carna Biosciences, Inc; host or cells: baculovirus expression system
T1 sequence (P23458 850-1154): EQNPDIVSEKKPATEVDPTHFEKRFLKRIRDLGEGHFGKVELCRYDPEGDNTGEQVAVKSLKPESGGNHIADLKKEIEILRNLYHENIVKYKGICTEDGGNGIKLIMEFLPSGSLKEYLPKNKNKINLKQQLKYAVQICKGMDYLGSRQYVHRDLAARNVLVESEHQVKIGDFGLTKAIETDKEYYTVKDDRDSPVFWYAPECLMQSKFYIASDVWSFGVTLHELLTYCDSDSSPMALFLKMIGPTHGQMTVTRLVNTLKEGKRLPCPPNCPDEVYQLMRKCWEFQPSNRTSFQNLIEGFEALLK
How it was run: (§1)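 EC50 values come from HTRF detection of phospho-biotin-TK peptide (1 μM) after 20-30 min RT reactions in Hepes pH 7.0 buffer with 0.75% DMSO. ATP was at Km for each enzyme: 7 μM JAK1, 4 μM JAK2, 2 μM JAK3, 13 μM TYK2. SEB (50 nM) was added for JAK1 and TYK2 only.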

[2] = target: T2, JAK2 (catalytic domain, His-tag) (Homo sapiens, UniProt O60674); experiment: JAK kinase assay (HTRF, phosphorylation of TK substrate-biotin), JAK2; conditions: ATP at Km (4 μM)
T2 construct: All four purified enzymes contain only the catalytic domain; His (N); purchased Carna Biosciences, Inc; host or cells: baculovirus expression system
T2 sequence (O60674 849-1124 limits assumed): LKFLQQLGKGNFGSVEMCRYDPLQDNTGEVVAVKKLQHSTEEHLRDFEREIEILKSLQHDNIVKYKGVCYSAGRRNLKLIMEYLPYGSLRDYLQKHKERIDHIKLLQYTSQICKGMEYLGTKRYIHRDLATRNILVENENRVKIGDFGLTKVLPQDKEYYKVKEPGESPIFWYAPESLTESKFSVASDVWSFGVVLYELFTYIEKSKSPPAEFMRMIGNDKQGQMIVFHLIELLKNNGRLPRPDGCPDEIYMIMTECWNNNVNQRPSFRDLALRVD
How it was run: as §1

[3] = target: T3, JAK3 (catalytic domain, His-tag) (Homo sapiens, UniProt P52333); experiment: JAK kinase assay (HTRF, phosphorylation of TK substrate-biotin), JAK3; conditions: ATP at Km (2 μM)
T3 construct: All four purified enzymes contain only the catalytic domain; His (N); purchased Carna Biosciences, Inc; host or cells: baculovirus expression system
T3 sequence (P52333 822-1111 limits assumed): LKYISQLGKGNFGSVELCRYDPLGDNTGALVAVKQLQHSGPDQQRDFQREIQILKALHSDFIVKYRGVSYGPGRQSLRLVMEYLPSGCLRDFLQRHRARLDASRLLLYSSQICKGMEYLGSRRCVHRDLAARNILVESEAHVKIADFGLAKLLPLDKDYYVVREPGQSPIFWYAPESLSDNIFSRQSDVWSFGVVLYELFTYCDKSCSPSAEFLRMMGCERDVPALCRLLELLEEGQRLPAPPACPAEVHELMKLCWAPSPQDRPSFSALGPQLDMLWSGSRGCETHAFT
How it was run: as §1

[4] = target: T4, TYK2 (aa 871-1187, catalytic domain, GST-tag) (Homo sapiens, UniProt P29597); experiment: JAK kinase assay (HTRF, phosphorylation of TK substrate-biotin), TYK2; conditions: ATP at Km (13 μM)
T4 construct: JAK1 (aa 850-1154) and TYK2 (aa 871-1187) are expressed with an N-terminally fused GST-tag; GST (N); purchased Carna Biosciences, Inc; host or cells: baculovirus expression system
T4 sequence (P29597 871-1187): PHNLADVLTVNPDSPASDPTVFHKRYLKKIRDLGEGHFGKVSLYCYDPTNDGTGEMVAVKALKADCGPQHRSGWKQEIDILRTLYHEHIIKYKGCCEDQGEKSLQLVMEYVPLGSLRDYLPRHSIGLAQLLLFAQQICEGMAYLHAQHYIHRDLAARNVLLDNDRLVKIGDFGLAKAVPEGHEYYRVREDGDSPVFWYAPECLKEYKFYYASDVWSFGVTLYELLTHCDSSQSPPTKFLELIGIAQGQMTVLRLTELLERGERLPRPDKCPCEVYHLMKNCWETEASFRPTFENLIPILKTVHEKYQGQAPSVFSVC
How it was run: as §1

[5] = read-out: JAK1 kinase inhibitory activity (EC50 indicator)
[6] = read-out: JAK2 kinase inhibitory activity (EC50 indicator)
[7] = read-out: JAK3 kinase inhibitory activity (EC50 indicator)
[8] = read-out: TYK2 kinase inhibitory activity (EC50 indicator)
[9] = HTRF assay, read-out: JAK1 kinase inhibitory activity (EC50 indicator)
[10] = HTRF assay, read-out: JAK2 kinase inhibitory activity (EC50 indicator)
[11] = HTRF assay, read-out: JAK3 kinase inhibitory activity (EC50 indicator)
[12] = HTRF assay, read-out: TYK2 kinase inhibitory activity (EC50 indicator)
[13] = HTRF assay, read-out: JAK1 kinase inhibitory activity (EC50)
[14] = HTRF assay, read-out: JAK2 kinase inhibitory activity (EC50)
[15] = HTRF assay, read-out: JAK3 kinase inhibitory activity (EC50)
[16] = HTRF assay, read-out: TYK2 kinase inhibitory activity (EC50)

pEC50 [1, 13]: > 7.00
pEC50 [2, 14]: > 7.00
pEC50 [3, 15]: > 7.00
pEC50 [4, 16]: > 7.00
Compound: NS(=O)(=O)c1ccc(OCC(=O)N2CCN(c3ncnc4[nH]ccc34)CC23CC3)c(F)c1 [Example 434, 3-Fluoro-4-{2-oxo-2-[7-(7H-pyrrolo[2,3-d]pyrimidin-4-yl)-4,7-diaza-spiro[2.5]oct-4-yl]-ethoxy}-benzenesulfonamide]

pEC50 [1, 9]: > 7.00
pEC50 [2, 10]: > 7.00
pEC50 [3, 11]: 6.30 to 7.00
pEC50 [4, 12]: 6.30 to 7.00
Compound: O=C(c1ccc(S(=O)(=O)NCCc2cccs2)cc1)N1CCN(c2ncnc3[nH]ccc23)CC12CC2 [Example 397, 4-[7-(7H-Pyrrolo[2,3-d]pyrimidin-4-yl)-4,7-diaza-spiro[2.5]octane-4-carbonyl]-N-(2-thiophen-2-yl-ethyl)-benzenesulfonamide]

pEC50 [1, 9]: > 7.00
pEC50 [2, 10]: > 7.00
pEC50 [3, 11]: < 6.30
pEC50 [4, 12]: 6.30 to 7.00
Compound: CS(=O)(=O)c1ccc(C(=O)N2CCN(c3ncnc4[nH]ccc34)CC23CC3)c(Cl)c1 [Example 382, (2-Chloro-4-methanesulfonyl-phenyl)-[7-(7H-pyrrolo[2,3-d]pyrimidin-4-yl)-4,7-diaza-spiro[2.5]oct-4-yl]-methanone]

pEC50 [1, 9]: > 7.00
pEC50 [2, 10]: > 7.00
pEC50 [3, 11]: > 7.00
pEC50 [4, 12]: > 7.00
Compound: NS(=O)(=O)c1ccc(SCC(=O)N2CCN(c3ncnc4[nH]ccc34)CC23CC3)cc1 [Example 404, 4-{2-Oxo-2-[7-(7H-pyrrolo[2,3-d]pyrimidin-4-yl)-4,7-diaza-spiro[2.5]oct-4-yl]-ethylsulfanyl}-benzenesulfonamide]

pEC50 [1, 13]: > 7.00
pEC50 [2, 14]: > 7.00
pEC50 [3, 15]: > 7.00
pEC50 [4, 16]: 6.30 to 7.00
Compound: O=C(COc1ccccc1)N1CCN(c2ncnc3[nH]ccc23)CC12CC2 [Example 442, 2-Phenoxy-1-[7-(7H-pyrrolo[2,3-d]pyrimidin-4-yl)-4,7-diaza-spiro[2.5]oct-4-yl]-ethanone]

pEC50 [1, 9]: > 7.00
pEC50 [2, 10]: > 7.00
pEC50 [3, 11]: > 7.00
pEC50 [4, 12]: 6.30 to 7.00
Compound: O=C(c1ccc(S(=O)(=O)NCc2ccco2)cc1)N1CCN(c2ncnc3[nH]ccc23)CC12CC2 [Example 426, N-Furan-2-ylmethyl-4-[7-(7H-pyrrolo[2,3-d]pyrimidin-4-yl)-4,7-diaza-spiro[2.5]octane-4-carbonyl]-benzenesulfonamide]

pEC50 [1, 13]: > 7.00
pEC50 [2, 14]: > 7.00
pEC50 [3, 15]: > 7.00
pEC50 [4, 16]: > 7.00
Compound: O=C(OC1CCCC1)N1CCN(c2ncnc3[nH]ccc23)CC12CC2 [Example 450, 7-(7H-Pyrrolo[2,3-d]pyrimidin-4-yl)-4,7-diaza-spiro[2.5]octane-4-carboxylic acid cyclopentyl ester]

pEC50 [1, 9]: > 7.00
pEC50 [2, 10]: > 7.00
pEC50 [3, 11]: 6.30 to 7.00
pEC50 [4, 12]: 6.30 to 7.00
Compound: CS(=O)(=O)c1cccc(C(=O)N2CCN(c3ncnc4[nH]ccc34)CC23CC3)c1 [Example 367, (3-Methanesulfonyl-phenyl)-[7-(7H-pyrrolo[2,3-d]pyrimidin-4-yl)-4,7-diaza-spiro[2.5]oct-4-yl]-methanone]

pEC50 [1, 9]: > 7.00
pEC50 [2, 10]: > 7.00
pEC50 [3, 11]: > 7.00
pEC50 [4, 12]: > 7.00
Compound: N#CCCNS(=O)(=O)c1ccc(C(=O)N2CCN(c3ncnc4[nH]ccc34)CC23CC3)cc1 [Example 395, N-(2-Cyano-ethyl)-4-[7-(7H-pyrrolo[2,3-d]pyrimidin-4-yl)-4,7-diaza-spiro[2.5]octane-4-carbonyl]-benzenesulfonamide]

The remaining lines, values behind:

Compound: NS(=O)(=O)c1cc(OCC(=O)N2C3CCC2CN(c2ncnc4[nH]ccc24)C3)ccc1Cl [Example 127, 2-Chloro-5-{2-oxo-2-[3-(7H-pyrrolo[2,3-d]pyrimidin-4-yl)-3,8-diaza-bicyclo[3.2.1]oct-8-yl]-ethoxy}-benzenesulfonamide]
pEC50 [1, 5]: > 7.00
pEC50 [2, 6]: > 7.00
pEC50 [3, 7]: > 7.00
pEC50 [4, 8]: < 6.30

Compound: O=C(c1cnccn1)N1CCN(c2ncnc3[nH]cc(Cl)c23)CC12CC2 [Example 314, [7-(5-Chloro-7H-pyrrolo[2,3-d]pyrimidin-4-yl)-4,7-diaza-spiro[2.5]oct-4-yl]-pyrazin-2-yl-methanone]
pEC50 [1, 9]: < 6.30
pEC50 [2, 10]: 6.30 to 7.00
pEC50 [3, 11]: < 6.30
pEC50 [4, 12]: < 6.30

Compound: O=C(c1cccs1)N1CCN(c2ncnc3[nH]ccc23)CC12CC2 [Example 211, [7-(7H-Pyrrolo[2,3-d]pyrimidin-4-yl)-4,7-diaza-spiro[2.5]oct-4-yl]-thiophen-2-yl-methanone]
pEC50 [1, 9]: > 7.00
pEC50 [2, 10]: > 7.00
pEC50 [3, 11]: > 7.00
pEC50 [4, 12]: 6.30 to 7.00

Compound: Cn1cc(S(N)(=O)=O)cc1C(=O)N1CCN(c2ncnc3[nH]ccc23)CC12CC2 [Example 188, 1-Methyl-5-[7-(7H-pyrrolo[2,3-d]pyrimidin-4-yl)-4,7-diaza-spiro[2.5]octane-4-carbonyl]-1H-pyrrole-3-sulfonic acid amide]
pEC50 [1, 5]: > 7.00
pEC50 [2, 6]: > 7.00
pEC50 [3, 7]: > 7.00
pEC50 [4, 8]: > 7.00

Compound: O=C(c1cccc(-c2ccccc2)c1)N1[C@@H]2CC[C@@H]1CN(c1ncnc3[nH]ccc13)C2 [Example 178, Biphenyl-3-yl-[3-(7H-pyrrolo[2,3-d]pyrimidin-4-yl)-3,8-diaza-bicyclo[3.2.1]oct-8-yl]-methanone]
pEC50 [1, 5]: 6.30 to 7.00
pEC50 [2, 6]: 6.30 to 7.00
pEC50 [3, 7]: 6.30 to 7.00
pEC50 [4, 8]: < 6.30

Compound: N#CCC(=O)N1CCN(c2ncnc3[nH]ccc23)CC12CC2 [Example 54, 3-Oxo-3-[7-(7H-pyrrolo[2,3-d]pyrimidin-4-yl)-4,7-diazaspiro[2.5]oct-4-yl]propionitrile]
pEC50 [1, 5]: > 7.00
pEC50 [2, 6]: > 7.00
pEC50 [3, 7]: > 7.00
pEC50 [4, 8]: < 6.30

Compound: O=C(c1cc2cc(F)cc(F)c2[nH]1)N1CCN(c2ncnc3[nH]ccc23)CC12CC2 [Example 192, (5,7-Difluoro-1H-indol-2-yl)-[7-(7H-pyrrolo[2,3-d]pyrimidin-4-yl)-4,7-diaza-spiro[2.5]oct-4-yl]-methanone]
pEC50 [1, 5]: > 7.00
pEC50 [2, 6]: > 7.00
pEC50 [3, 7]: > 7.00
pEC50 [4, 8]: > 7.00

Compound: O=C(c1ccncc1)N1CCN(c2ccnc3[nH]ccc23)CC12CC2 [Example 224, Pyridin-4-yl-[7-(1H-pyrrolo[2,3-b]pyridin-4-yl)-4,7-diaza-spiro[2.5]oct-4-yl]-methanone]
pEC50 [1, 9]: 6.30 to 7.00
pEC50 [2, 10]: 6.30 to 7.00
pEC50 [3, 11]: < 6.30
pEC50 [4, 12]: < 6.30

Compound: NS(=O)(=O)c1ccc(C(=O)N2CCN(c3ncnc4[nH]ccc34)CC23CC3)cc1Cl [Example 103, 2-Chloro-4-[7-(7H-pyrrolo[2,3-d]pyrimidin-4-yl)-4,7-diaza-spiro[2.5]octane-4-carbonyl]-benzenesulfonamide]
pEC50 [1, 5]: > 7.00
pEC50 [2, 6]: > 7.00
pEC50 [3, 7]: > 7.00
pEC50 [4, 8]: > 7.00

Compound: N#CCCCC(=O)N1CCN(c2ncnc3[nH]cc(Cl)c23)CC12CC2 [Example 322, 5-[7-(5-Chloro-7H-pyrrolo[2,3-d]pyrimidin-4-yl)-4,7-diaza-spiro[2.5]oct-4-yl]-5-oxo-pentanenitrile]
pEC50 [1, 9]: < 6.30
pEC50 [2, 10]: < 6.30
pEC50 [3, 11]: 6.30 to 7.00
pEC50 [4, 12]: < 6.30

Compound: N#CCCC(=O)N1CCN(c2nc(N)nc3[nH]ccc23)CC12CC2 [Example 313, 4-[7-(2-Amino-7H-pyrrolo[2,3-d]pyrimidin-4-yl)-4,7-diaza-spiro[2.5]oct-4-yl]-4-oxo-butyronitrile]
pEC50 [1, 9]: > 7.00
pEC50 [2, 10]: > 7.00
pEC50 [3, 11]: > 7.00
pEC50 [4, 12]: 6.30 to 7.00

Compound: O=C(c1cc2cc(F)ccc2[nH]1)N1CCN(c2ncnc3[nH]ccc23)CC12CC2 [Example 361, (5-Fluoro-1H-indol-2-yl)-[7-(7H-pyrrolo[2,3-d]pyrimidin-4-yl)-4,7-diaza-spiro[2.5]oct-4-yl]-methanone]
pEC50 [1, 9]: > 7.00
pEC50 [2, 10]: > 7.00
pEC50 [3, 11]: > 7.00
pEC50 [4, 12]: > 7.00

Compound: O=C(c1ccc(-c2ccccc2)cc1)N1CCN(c2ncnc3[nH]ccc23)CC12CC2 [Example 5, Biphenyl-4-yl-[7-(7H-pyrrolo[2,3-d]pyrimidin-4-yl)-4,7-diazaspiro[2.5]oct-4-yl]methanone]
pEC50 [1, 5]: > 7.00
pEC50 [2, 6]: > 7.00
pEC50 [3, 7]: 6.30 to 7.00
pEC50 [4, 8]: < 6.30

Source: patent US9346809B2 (LEO PHARMA A/S, priority 2009, dated 2016)
